The target of assay [1] is T1, Nuclear receptor subfamily 4 group A member 2 (Homo sapiens, UniProt P43354). Description: Agonist activity at human Nurr1 LBD transiently transfected in HEK293T cells incubated for 16 hrs by Gal4-hybrid reporter gene based Dual-glo luciferase assay. Format: cell-based. (In general: A reporter such as luciferase makes a cellular process visible.)
Assay [2] addresses T2, Nuclear receptor subfamily 4immunitygroup A member 1 (Homo sapiens, UniProt P22736). As to the kind of experiment: Modulation of human Nur77 LBD transiently transfected in HEK293T cells at 100 to 200 uM incubated for 16 hrs by Gal4-hybrid reporter gene based Dual-glo luciferase assay. The following applies: dose 100-200 µM. Format: cell-based.
Assay [3] has as its target T2, Nuclear receptor subfamily 4immunitygroup A member 1. Description: Inverse agonist activity at human Nur77 LBD transiently transfected in HEK293T cells incubated for 16 hrs by Gal4-hybrid reporter gene based Dual-glo luciferase assay. Format: cell-based.
Assay [4] deals with T3, Nuclear receptor subfamily 4 group A member 3 (Homo sapiens, UniProt Q92570). As to the kind of experiment: Inverse agonist activity at human NOR-1 LBD transiently transfected in HEK293T cells incubated for 16 hrs by Gal4-hybrid reporter gene based Dual-glo luciferase assay. Format: cell-based.
The target of assay [5] is T3, Nuclear receptor subfamily 4 group A member 3. As to the kind of experiment: Modulation of human NOR-1 LBD transiently transfected in HEK293T cells at 100 to 200 uM incubated for 16 hrs by Gal4-hybrid reporter gene based Dual-glo luciferase assay. The following applies: dose 100-200 µM. Format: cell-based.
The target is the same in assay [6]. Description: Agonist activity at human NOR-1 LBD transiently transfected in HEK293T cells assessed as maximal activation incubated for 16 hrs by Gal4-hybrid reporter gene based Dual-glo luciferase assay relative to control. Format: cell-based. The following applies: filed as agonist.
Assay [7] shares this target. As to the kind of experiment: Agonist activity at human NOR-1 LBD transiently transfected in HEK293T cells incubated for 16 hrs by Gal4-hybrid reporter gene based Dual-glo luciferase assay. The class given is cell-based.
Assay [8] has as its target T2, Nuclear receptor subfamily 4immunitygroup A member 1. Description: Agonist activity at human Nur77 LBD transiently transfected in HEK293T cells incubated for 16 hrs by Gal4-hybrid reporter gene based Dual-glo luciferase assay. The class given is cell-based.
Assay [9] has the same target. As to the kind of experiment: Agonist activity at human Nur77 LBD transiently transfected in HEK293T cells assessed as maximal activation incubated for 16 hrs by Gal4-hybrid reporter gene based Dual-glo luciferase assay relative to control. The following applies: filed as agonist. Format: cell-based.
Assay [10] deals with T1, Nuclear receptor subfamily 4 group A member 2. As to the kind of experiment: Inverse agonist activity at human Nurr1 LBD transiently transfected in HEK293T cells incubated for 16 hrs by Gal4-hybrid reporter gene based Dual-glo luciferase assay. Format: cell-based.
Assay [11] shares this target. Description: Binding affinity to recombinant N-terminal 6His-tagged Nurr1 LBD (362 to 598 residues) (unknown origin) expressed in Escherichia coli BL21(DE3)-R3-pRARE2 cells assessed as thermal stability by measuring change in melting temperature at 100 uM by SYPRO orange dye based differential scanning fluorimetry analysis. Background: Differential scanning fluorimetry follows unfolding on heating by fluorescence.

33 compounds from ChEMBL document CHEMBL5390264, “Exploring Fatty Acid Mimetics as NR4A Ligands” (J Med Chem, 2023) can be followed below.

Each structure is given as a SMILES string. Active and inactive are the calls of the source. No cut-off for these calls is given here.

T1 sequence (P43354 whole entry, the tested form may be a part): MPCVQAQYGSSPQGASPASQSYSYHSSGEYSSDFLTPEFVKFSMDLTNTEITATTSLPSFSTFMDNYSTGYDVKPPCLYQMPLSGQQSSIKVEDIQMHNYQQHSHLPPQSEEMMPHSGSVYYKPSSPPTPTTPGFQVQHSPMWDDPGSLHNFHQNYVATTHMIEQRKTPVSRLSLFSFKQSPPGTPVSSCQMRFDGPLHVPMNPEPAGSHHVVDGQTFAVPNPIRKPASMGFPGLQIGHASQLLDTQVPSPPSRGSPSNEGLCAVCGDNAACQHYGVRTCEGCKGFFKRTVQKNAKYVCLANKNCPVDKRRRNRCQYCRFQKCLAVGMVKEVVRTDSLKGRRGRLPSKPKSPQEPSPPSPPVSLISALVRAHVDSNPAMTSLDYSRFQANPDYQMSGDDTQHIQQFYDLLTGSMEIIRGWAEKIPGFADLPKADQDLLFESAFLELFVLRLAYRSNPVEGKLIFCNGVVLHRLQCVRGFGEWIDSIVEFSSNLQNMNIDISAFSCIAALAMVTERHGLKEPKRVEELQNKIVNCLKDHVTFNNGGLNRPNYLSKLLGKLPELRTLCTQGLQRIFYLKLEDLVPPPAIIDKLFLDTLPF
T2 sequence (P22736 whole entry, the tested form may be a part): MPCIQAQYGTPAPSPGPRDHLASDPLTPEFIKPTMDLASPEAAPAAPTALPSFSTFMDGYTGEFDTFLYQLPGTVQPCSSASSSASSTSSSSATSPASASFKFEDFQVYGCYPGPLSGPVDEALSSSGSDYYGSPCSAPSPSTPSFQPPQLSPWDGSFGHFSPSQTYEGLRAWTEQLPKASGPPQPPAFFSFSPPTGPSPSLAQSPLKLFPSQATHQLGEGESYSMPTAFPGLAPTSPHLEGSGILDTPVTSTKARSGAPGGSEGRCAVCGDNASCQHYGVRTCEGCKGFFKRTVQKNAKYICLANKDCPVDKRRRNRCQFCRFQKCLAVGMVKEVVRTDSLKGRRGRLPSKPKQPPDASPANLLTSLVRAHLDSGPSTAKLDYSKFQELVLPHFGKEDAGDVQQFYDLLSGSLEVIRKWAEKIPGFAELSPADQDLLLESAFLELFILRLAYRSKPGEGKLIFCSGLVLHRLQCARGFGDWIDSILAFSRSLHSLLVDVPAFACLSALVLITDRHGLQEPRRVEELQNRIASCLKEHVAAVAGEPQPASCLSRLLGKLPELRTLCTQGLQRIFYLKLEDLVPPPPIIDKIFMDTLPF
T3 sequence (Q92570 whole entry, the tested form may be a part): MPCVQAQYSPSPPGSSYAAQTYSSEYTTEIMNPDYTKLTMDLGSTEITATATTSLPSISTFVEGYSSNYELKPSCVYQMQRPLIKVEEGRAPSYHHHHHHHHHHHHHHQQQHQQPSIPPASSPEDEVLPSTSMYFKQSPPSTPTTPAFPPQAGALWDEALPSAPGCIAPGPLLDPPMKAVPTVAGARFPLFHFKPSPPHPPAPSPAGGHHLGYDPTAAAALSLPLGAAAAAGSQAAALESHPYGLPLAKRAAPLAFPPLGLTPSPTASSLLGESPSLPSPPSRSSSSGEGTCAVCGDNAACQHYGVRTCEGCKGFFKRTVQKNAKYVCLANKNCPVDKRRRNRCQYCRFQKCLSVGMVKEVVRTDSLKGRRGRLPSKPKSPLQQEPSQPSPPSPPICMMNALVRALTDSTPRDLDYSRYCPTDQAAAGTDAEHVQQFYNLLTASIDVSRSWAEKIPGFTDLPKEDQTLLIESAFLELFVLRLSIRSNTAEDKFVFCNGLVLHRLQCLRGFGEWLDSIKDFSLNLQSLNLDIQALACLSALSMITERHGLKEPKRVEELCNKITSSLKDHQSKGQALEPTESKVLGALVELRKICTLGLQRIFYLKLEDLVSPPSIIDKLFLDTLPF

Regarding `O=C(O)c1cccc(OCc2ccc(F)cc2)c1`, the half-maximal effective concentration (EC50) (usually the concentration giving half of the maximal effect) in assay [1] (read-out: EC50) stood at 19 µM. Still for that read-out and setting: under `O=C(O)c1cccc(OCc2ccccc2Cl)c1` stands 3 µM. In the case of `O=C(O)c1ccnc2ccccc12`, the result in assay [2] was inactive.

For the compound `N#Cc1c(F)c(F)cc(C(=O)O)c1F`, the IC50 in assay [3] and in assay [4] was over 100 µM throughout. For `COc1ccccc1CC(=O)O`, the result in assay [2] was inactive. Consider `O=C(O)CC(c1ccccc1)c1ccccc1`, for which the result in assay [5] was inactive. Take `O=C(O)c1ccc(OCc2ccccc2)cc1`: the EC50 in assay [1] (read-out: EC50) turned out to be 9 µM; in [7], 13 µM; in assay [8], 8 µM. Moreover, the maximal effect (Emax) (in general, the size of the effect at its maximum, as opposed to the concentration needed) came to 166% in assay [6] and 158% in assay [9]. On to `CSc1nccn1-c1ccc(C(=O)O)cc1`, for which the IC50 (commonly the concentration that inhibits the measured activity by half) is 9 µM in assay [3], over 100 µM in assay [4] and 37 µM in [10]. In the case of `O=C(O)c1cccc2ccccc12` [NAPHTHOIC ACID], the EC50 turned out to be 54 µM in [1] (read-out: EC50), 56 µM in [7] and 48 µM in [8]. For the same compound, the Emax in assay [6] amounted to 136%; in assay [9], 183%.

With `O=C(O)/C=C/c1ccc(Cl)c(Cl)c1`, in assay [5], the outcome was inactive. As to `O=C(O)c1ccc(OCc2cccc(-c3ccccc3)c2)cc1`, the EC50 entry in assay [1] (hek293t) is given as “Not Determined(Insoluble)”.

In the case of `O=C(O)c1ccc(-c2cccc(F)c2)o1`, the values for the half-maximal effective concentration (EC50) in assay [1] (read-out: EC50), in [7] and in assay [8] were 6 µM, 6 µM and 9 µM, respectively. Further, the maximal effect (Emax) worked out at 148% in assay [6] and 158% in assay [9]. `COc1cccc(-c2ccc(NC(=O)C3=C(C(=O)O)CCC3)c(F)c2)c1`: the thermal shift (ΔTm) (as a rule, the shift of the melting midpoint relative to a reference) in [11] was -0.94 °C.

With `O=C(O)c1ccc(OCc2ccc(F)cc2)cc1`, the EC50 in assay [1] (read-out: EC50) stood at 12 µM. For the compound `O=C(O)c1ccccc1CCc1ccccc1`, the IC50 in [3] and in assay [4] was over 100 µM throughout. Consider `CN(C)c1ccc(/N=N/c2ccccc2C(=O)O)cc1`, for which the result in [5] was inactive.

Consider `O=C(O)c1ccc(OCc2ccc(Cl)cc2)cc1`, for which the concentration giving a half-maximal response (EC50) in assay [1] (read-out: EC50) turned out to be 6 µM. On to `O=Cc1ccc(C(=O)O)cc1`, for which the outcome in assay [5] and in assay [2] was inactive. With `O=C(O)c1ccccc1C(=O)c1ccc(Cl)cc1`, the concentration for half-maximal inhibition (IC50) in [3] is 99 µM; in [4], 111 µM; in assay [10] it was over 100 µM. Regarding `O=C(O)CN(CCO)CCO`, in [2], the outcome was inactive.

As for `O=C(O)c1ccc(OCc2cccc(C(F)(F)F)c2)cc1`, the 50% effective concentration (EC50) in assay [1] (read-out: EC50) was 18 µM. Turning to `CCc1c(C(=O)O)cnn1-c1ccccc1`, the concentration for a half-maximal effect (EC50) in assay [7] is 73 µM; in [8], over 100 µM. As to `COc1cc(C(=O)O)cc(OC)c1OC`, the result in assay [2] was inactive. The same measure, in the same setting: under `Cn1nnc2c(C(=O)O)ncn2c1=O` stands “inactive”. Consider `O=C(O)c1cccc(OCc2cccc(F)c2)c1`, for which the EC50 in [1] (read-out: EC50) worked out at 3 µM. `C/C(=C\C(=O)O)c1ccc(C(F)(F)F)cc1`: the concentration for a half-maximal effect (EC50) in [1] (read-out: EC50) turned out to be 76 µM; in [7] it was 36 µM; in [8], 28 µM. Besides, the values for the maximum response (Emax) in assay [6] and in assay [9] were 157% and 162%, respectively.

As to `O=C(O)c1ccc(OCc2ccccc2Cl)cc1`, the EC50 in [1] (read-out: EC50) was 0.05 µM. Consider `CCC(Oc1cc(Cl)cc(Cl)c1)C(=O)O` (stereo unspecified), for which, in assay [2], the outcome was inactive.

On to `O=C(O)c1cccc(OCc2ccc(Cl)cc2Cl)c1`, for which the concentration for a half-maximal effect (EC50) in assay [7] turned out to be 0.15 µM; in assay [8], 0.04 µM.

For the compound `O=C(O)c1cccc(OCc2ccccc2)c1`, in assay [1] (read-out: EC50), the EC50 came to 8 µM. With `O=C(O)c1ccc(Oc2ccccc2)cc1`, the result in assay [2] was inactive.

Consider `O=C(O)C(c1ccccc1)(c1ccccc1)c1ccccc1`, for which the 50% inhibitory concentration (IC50) in assay [3] and in assay [4] was over 100 µM each time. Turning to `O=C(O)CCC(=O)c1ccccc1`, the figures for the concentration for a half-maximal effect (EC50) in assay [1] (read-out: EC50), in assay [7] and in [8] were 90 µM, over 100 µM and over 100 µM, respectively.
